Measured values: publication PMC4870705, “Topical Delivery of Protein and Peptide Using Novel Cell Penetrating Peptide IMT-P8” (Scientific Reports, 2016)
“Also recorded” adds a separate entry of the source.

How the values were obtained:
[1] = tested on: PC3 cells; test: Cell viability assay (MTT); assay type: cell-based, human; settings: unlabeled peptide 5, 10 and 20 μM, 24 h, serum containing medium
Procedure: (§1) Figure 3 Cell viability assay. (A) HeLa, (B) PC3 and (C) MDA-MB-231 cells were incubated with increasing concentrations (5, 10, and 20 μM) of peptides in serum containing medium at 37 °C for 24 h. Cell viability was measured by MTT assay. Viability of only cells (without peptide) was taken as 100% and viabilities of cells treated with increasing concentration of peptides were plotted as percentage of control.
(§2) Cell viability was determined by MTT assay. Briefly, cells (HeLa, PC3 and MDA-MB-231) were seeded at a density of 5 × 10^3 cells/well in 96-well microtiter plates in medium supplemented with 10% FBS 24 h before the start of the experiment. Cells were incubated with different concentrations (5, 10, and 20 μM, respectively) of unlabeled peptides for 24 h. […] At the end of the incubation period, cell growth was assayed by the addition of 20 μl of MTT (5 mg/mL; Sigma-Aldrich) to each well, and plate was incubated at 37 °C for 4 h. Later, the medium was removed carefully, 200 μl DMSO was added and mixed, and the absorbance was read at 570 nm with a microplate reader (Bio-Rad). The survival of cells relative to the control (cells incubated with growth medium containing no peptide) was calculated by taking the ratio of the absorbance at 570 nm values. All the experiments were performed in triplicates.

[2] = tested on: MDA-MB-231 cells; test: Cell viability assay (MTT); assay type: cell-based, human; settings: unlabeled peptide 5, 10 and 20 μM, 24 h, serum containing medium
Procedure: as §1, §2

[3] = tested on: HeLa cells; test: Cell viability assay (MTT); assay type: cell-based, human; settings: 24 h, serum containing medium; for Cell viability (MTT): HeLa, unlabeled peptide 0, 5, 10 and 20 μM, 37 °C
Procedure: as §1, §2

[4] = tested on: HeLa cells; test: Confocal laser scanning microscopy, intracellular localization in live cells; settings: FITC-labeled peptide 2.5 μM, 30 min, 37 °C
Procedure: Cells were washed with PBS thrice and live cells were imaged. Scale bars are 10 μm.
Cells were not fixed to avoid artifactual localization of the internalized peptide. At the end of the incubation period, culture medium was removed, and coverslips were washed thoroughly with PBS for 3–5 minutes (thrice) and mounted on glass slides with the antifade reagent.
Thereafter, cells were washed with PBS thrice and immediately examined using the confocal microscope.

KLAKLAKKLAKLAKRRWRRWNRFNRRRCR [IMT-P8-KLA, fusion peptide of KLA and IMT-P8, 29 aa]
Cell viability (MTT) [1]: dose-dependent decrease in cell viability
Cell viability (MTT) [2]: dose-dependent decrease in cell viability
Cell viability (MTT) [3]: dose-dependent decrease in cell viability; also recorded: caused significant cell death
Cell viability (MTT) at 20 μM ([3]; unlabeled peptide 20 μM, HeLa (text says all cell lines examined)): significant decrease in cell viability

RRWRRWNRFNRRRCR [IMT-P8, novel human protein-derived arginine-rich cell-penetrating peptide (Institute of Microbial Technology-Peptide 8), 15 aa]
Cell viability (MTT) [3]: not effective at any concentration tested

KLAKLAKKLAKLAK [small cationic amphipathic mitochondrial membrane-disrupting pro-apoptotic peptide, 14 aa, used as cargo, reference compound]
Internalization / fluorescence in cells by CLSM [4]: no fluorescence
Cell viability (MTT) [3]: not effective at any concentration tested
